Data from ChEMBL document CHEMBL5550222, “Synthesis and Biological Evaluation of Novel Psidium Meroterpenoid Derivatives against Cisplatin-Induced Acute Kidney Injury” (J Med Chem, 2024).
Calls of active or inactive are those of the source. No cut-off for these calls is given here.

How the values were obtained:
[1] = Cytotoxicity against human HK-2 cells incubated for 72 hrs by MTT assay; type: toxicity, cell-based
[2] = test system: HK-2; experiment: Protection against cisplatin-induced nephrotoxicity in human HK-2 cells assessed as cell viability at 1 uM preincubated with compound for 2 hrs followed by cisplatin induction and measured after 72 hrs by MTT assay (reference value: 45.1 +/- 3.2%); type: functional; settings: time 74 hrs, read-out: Activity
[3] = test system: HK-2; experiment: Protection against cisplatin-induced nephrotoxicity in human HK-2 cells assessed as cell viability at 10 uM preincubated with compound for 2 hrs followed by cisplatin induction and measured after 72 hrs by MTT assay (reference value: 45.1 +/- 3.2%); type: functional; settings: time 74 hrs, read-out: Activity
[4] = test system: HK-2; experiment: Protection against cisplatin-induced nephrotoxicity in human HK-2 cells assessed as cell viability at 5 uM preincubated with compound for 2 hrs followed by cisplatin induction and measured after 72 hrs by MTT assay (reference value: 45.1 +/- 3.2%); type: functional; settings: time 74 hrs, read-out: Activity
[5] = test system: HK-2; experiment: Protection against cisplatin-induced nephrotoxicity in human HK-2 cells assessed as cell viability at 5 uM preincubated with compound for 2 hrs followed by cisplatin induction and measured after 72 hrs by MTT assay (reference value: 37.37 +/- 1.35%); type: functional; settings: time 74 hrs, read-out: Activity
[6] = test system: HK-2; experiment: Protection against cisplatin-induced nephrotoxicity in human HK-2 cells assessed as cell viability at 10 uM preincubated with compound for 2 hrs followed by cisplatin induction and measured after 72 hrs by MTT assay (reference value: 37.37 +/- 1.35%); type: functional; settings: time 74 hrs, read-out: Activity
[7] = test system: HK-2; experiment: Protection against cisplatin-induced nephrotoxicity in human HK-2 cells assessed as cell viability at 1 uM preincubated with compound for 2 hrs followed by cisplatin induction and measured after 72 hrs by MTT assay (reference value: 37.37 +/- 1.35%); type: functional; settings: time 74 hrs, read-out: Activity
[8] = test system: HK-2; experiment: Protection against cisplatin-induced nephrotoxicity in human HK-2 cells at 5 to 10 uM preincubated with compound for 2 hrs followed by cisplatin induction and measured after 72 hrs by MTT assay; type: functional, cell-based; settings: dose 5-10 µM, time 74.0 hrs

Row | Structure (SMILES) | IC50 at 72 h [1] [µM] | viability at 1 µM [2] [%] | viability at 10 µM [3] [%] | viability at 5 µM [4] [%] | viability at 5 µM [5] [%] | viability at 10 µM [6] [%] | viability at 1 µM [7] [%] | Activity [8]
1 | C/C1=C\CC(C)(C)/C=C/CC2(C)Oc3c(C=O)c(O)c(C(=O)c4ccccc4)c(O)c3CC2CC1 (centres undefined) | 7.72 | 61.1 | 42.7 | 66.8 |  |  |  | 
2 | COc1c(CO)c(OC)c(C(=O)c2ccccc2)c2c1CC1CCCCC1(C)O2 (centres undefined) | > 10 |  |  |  | 44.3 | 44.6 | 38.8 | 
3 | COc1c2c(c(CN3CCN(C)CC3)c(OC)c1C(=O)c1ccccc1)OC(C)(C)C(C)C2 (centres undefined) | > 10 |  |  |  | 33 | 38.2 | 39.7 | 
4 | COc1c(C=O)c(OC)c(C(=O)c2ccccc2)c2c1CC1CCCC1(C)O2 (centres undefined) | > 10 |  |  |  | 44.9 | 49.4 | 38.2 | 
5 | COc1c2c(c(C(=O)O)c(OC)c1C(=O)c1ccccc1)OC1(C)CCCCC1C2 (centres undefined) | > 10 |  |  |  | 30.7 | 28 | 38.2 | 
6 | CC12C[C@H]3[C@@H](CC1Cc1c(O)c(C=O)c(O)c(C(=O)c4ccccc4)c1O2)C3(C)C (some centres undefined) | 7.81 |  |  |  |  |  |  | 
7 | COc1c(CN2CCN(C)CC2)c(OC)c(C(=O)c2ccccc2)c2c1CC1CCCC1(C)O2 (centres undefined) | > 10 |  |  |  | 37.5 | 43.7 | 38 | 
8 | COc1c(CO)c2c(c(OC)c1C(=O)c1ccccc1)CC1CC/C(C)=C/CC(C)(C)/C=C/CC1(C)O2 (centres undefined) | > 10 | 51.2 | 83.3 | 73.6 |  |  |  | Active
9 | COc1c(CO)c(OC)c(C(=O)c2ccccc2)c2c1CC1C[C@@H]3[C@H](CC1(C)O2)C3(C)C (some centres undefined) | > 10 |  |  |  | 43.1 | 59.2 | 36 | 
10 | CC12CCCC1Cc1c(O)c(C(=O)c3ccccc3)c(O)c(C=O)c1O2 (centres undefined) | > 10 |  |  |  | 38.2 | 38.6 | 37.2 | 
11 | COc1c2c(c(C(=O)O)c(OC)c1C(=O)c1ccccc1)OC1(C)CCCC1C2 (centres undefined) | > 10 |  |  |  | 29.6 | 32.6 | 32.3 | 
12 | COc1c2c(c(C(=O)c3ccccc3)c(OC)c1C(=O)O)OC(C)(C)C(C)C2 (centres undefined) | > 10 |  |  |  | 30.4 | 33.4 | 33.6 | 
13 | COc1c(C=O)c(OC)c(C(=O)c2ccccc2)c2c1CC1C[C@@H]3[C@H](CC1(C)O2)C3(C)C (some centres undefined) | > 10 |  |  |  | 39.8 | 39 | 36.3 | 
14 | COc1c(C=O)c(OC)c(C(=O)c2ccccc2)c2c1CC1CCCCC1(C)O2 (centres undefined) | > 10 |  |  |  | 34.4 | 30.1 | 35.3 | 
15 | COc1c(C=O)c2c(c(OC)c1C(=O)c1ccccc1)CC1CCCCC1(C)O2 (centres undefined) | > 10 |  |  |  | 35.2 | 44.9 | 34.1 | 
16 | COc1c(C=O)c(OC)c(C(=O)c2ccccc2)c2c1CC(C)C(C)(C)O2 (centres undefined) | > 10 |  |  |  | 30.4 | 43.5 | 26.8 | 
17 | CC1Cc2c(O)c(C=O)c(O)c(C(=O)c3ccccc3)c2OC1(C)C (centres undefined) | > 10 |  |  |  | 43.6 | 47 | 39.9 | 
18 | COc1c(CN2CCN(C)CC2)c(OC)c(C(=O)c2ccccc2)c2c1CC1C[C@@H]3[C@H](CC1(C)O2)C3(C)C (some centres undefined) | > 10 |  |  |  | 40.1 | 18.5 | 39.9 | 
19 | COc1c(C=O)c2c(c(OC)c1C(=O)c1ccccc1)CC1C[C@@H]3[C@H](CC1(C)O2)C3(C)C (some centres undefined) | > 10 |  |  |  | 30.8 | 35.5 | 30.1 | 
20 | CC12CCCCC1Cc1c(O)c(C(=O)c3ccccc3)c(O)c(C=O)c1O2 (centres undefined) | > 10 |  |  |  | 39.3 | 38 | 34.8 | 
21 | COc1c(CO)c2c(c(OC)c1C(=O)c1ccccc1)CC1CCCCC1(C)O2 (centres undefined) | > 10 |  |  |  | 41.8 | 36.9 | 37.7 | 
22 | COc1c(C=O)c2c(c(OC)c1C(=O)c1ccccc1)CC(C)C(C)(C)O2 (centres undefined) | > 10 |  |  |  | 43.7 | 46.2 | 37.5 | 
23 | COc1c(CO)c2c(c(OC)c1C(=O)c1ccccc1)CC1CCCC1(C)O2 (centres undefined) | > 10 |  |  |  | 37.5 | 45.4 | 34.9 | 

Row | Structure (SMILES) | IC50 at 72 h [1] [µM] | viability at 1 µM [2] [%] | viability at 10 µM [3] [%] | viability at 5 µM [4] [%] | viability at 5 µM [5] [%] | viability at 10 µM [6] [%] | viability at 1 µM [7] [%] | Activity [8]
24 | COc1c2c(c(CN3CCN(C)CC3)c(OC)c1C(=O)c1ccccc1)OC1(C)CCCCC1C2 (centres undefined) | > 10 |  |  |  | 37.1 | 37 | 40.2 | 
25 | COc1c2c(c(C(=O)O)c(OC)c1C(=O)c1ccccc1)OC1(C)C[C@H]3[C@@H](CC1C2)C3(C)C (some centres undefined) | > 10 |  |  |  | 21.6 | 25.4 | 31.5 | 
26 | CC1Cc2c(O)c(C(=O)c3ccccc3)c(O)c(C=O)c2OC1(C)C (centres undefined) | > 10 |  |  |  | 33.2 | 28.1 | 37.7 | 
27 | COc1c2c(c(C(=O)O)c(OC)c1C(=O)c1ccccc1)OC1(C)C/C=C/C(C)(C)C/C=C(\C)CCC1C2 (centres undefined) | > 10 | 48.2 | 68.2 | 64.4 |  |  |  | Active
28 | COc1c2c(c(CN3CCN(C)CC3)c(OC)c1C(=O)c1ccccc1)OC1(C)C[C@H]3[C@@H](CC1C2)C3(C)C (some centres undefined) | > 10 |  |  |  | 41.9 | 40.8 | 37.5 | 
29 | COc1c(CO)c(OC)c(C(=O)c2ccccc2)c2c1CC(C)C(C)(C)O2 (centres undefined) | > 10 |  |  |  | 31.4 | 34.2 | 38.3 | 
30 | CC12C[C@H]3[C@@H](CC1Cc1c(O)c(C(=O)c4ccccc4)c(O)c(C=O)c1O2)C3(C)C (some centres undefined) | 9.31 |  |  |  |  |  |  | 
31 | COc1c2c(c(C(=O)c3ccccc3)c(OC)c1C(=O)O)OC1(C)CCCC1C2 (centres undefined) | > 10 |  |  |  | 35.2 | 31.8 | 37.2 | 
32 | COc1c(CN2CCN(C)CC2)c(OC)c(C(=O)c2ccccc2)c2c1CC(C)C(C)(C)O2 (centres undefined) | > 10 |  |  |  | 39.2 | 38.9 | 37.2 | 
33 | COc1c2c(c(C(=O)c3ccccc3)c(OC)c1C(=O)O)OC1(C)CCCCC1C2 (centres undefined) | > 10 |  |  |  | 35.9 | 25.7 | 38.8 | 
34 | C/C1=C\CC(C)(C)/C=C/CC2(C)Oc3c(c(O)c(C=O)c(O)c3C(=O)c3ccccc3)CC2CC1 (centres undefined) | > 10 | 60.3 | 67.1 | 70.2 |  |  |  | 
35 | COc1c(CO)c2c(c(OC)c1C(=O)c1ccccc1)CC1C[C@@H]3[C@H](CC1(C)O2)C3(C)C (some centres undefined) | 6.42 |  |  |  |  |  |  | 
36 | COc1c(CN2CCN(C)CC2)c(OC)c(C(=O)c2ccccc2)c2c1CC1CCCCC1(C)O2 (centres undefined) | > 10 |  |  |  | 24.2 | 25.9 | 30.4 | 
37 | CC12CCCCC1Cc1c(O)c(C=O)c(O)c(C(=O)c3ccccc3)c1O2 (centres undefined) | > 10 |  |  |  | 41.3 | 42.5 | 33.6 | 
38 | COc1c(C=O)c2c(c(OC)c1C(=O)c1ccccc1)CC1CCCC1(C)O2 (centres undefined) | > 10 |  |  |  | 33.4 | 30.8 | 37.4 | 
39 | COc1c(CO)c2c(c(OC)c1C(=O)c1ccccc1)CC(C)C(C)(C)O2 (centres undefined) | > 10 |  |  |  | 45.6 | 48.4 | 40.1 | Active
40 | COc1c2c(c(C(=O)O)c(OC)c1C(=O)c1ccccc1)OC(C)(C)C(C)C2 (centres undefined) | > 10 |  |  |  | 28.9 | 32 | 37.8 | 
41 | CC12CCCC1Cc1c(O)c(C=O)c(O)c(C(=O)c3ccccc3)c1O2 (centres undefined) | > 10 |  |  |  | 49.6 | 51.7 | 41.5 | Active
42 | COc1c(CO)c(OC)c(C(=O)c2ccccc2)c2c1CC1CCCC1(C)O2 (centres undefined) | > 10 |  |  |  | 25.9 | 26.5 | 35 | 
43 | COc1c2c(c(C(=O)c3ccccc3)c(OC)c1C(=O)O)OC1(C)C[C@H]3[C@@H](CC1C2)C3(C)C (some centres undefined) | > 10 |  |  |  |  | 40 | 30.2 | 
44 | COc1c2c(c(CN3CCN(C)CC3)c(OC)c1C(=O)c1ccccc1)OC1(C)CCCC1C2 (centres undefined) | > 10 |  |  |  | 39.4 | 38.3 | 36.4 | 
45 | COc1c(CN2CCN(C)CC2)c(OC)c(C(=O)c2ccccc2)c2c1CC1CC/C(C)=C/CC(C)(C)/C=C/CC1(C)O2 (centres undefined) | 9.1 | 46.3 | 47.8 | 57.9 |  |  |  | 
